Several values for one entry are separate records, joined by “and”; a condition that tells them apart may be missing. Equal entries are not always repeated. Numbers after ± are expanded uncertainties.

The source of these data is the NIST ThermoML archive (doi:10.1016/j.jct.2009.12.004).

Data set [1] can be described thus: activity coefficient (dimensionless); of the first substance listed, at infinite dilution; xn = mol fraction of the nth substance listed. Conditions: Liquid, Chromatography, x1 = 0.
The conditions of data set [2]: 298.15 K; 101.33 kPa; Liquid; Vibrating tube method.

For `C=CCCCCCCCC` [1-decene] + CCCCCCCC[n+]1ccn(C)c1.F[P-](F)(F)(F)(F)F, the activity coefficient in data set [1] (313.15 K) was 16.3 and 16.7; in data set [1] (323.15 K), 16.3 and 16.5; in data set [1] (333.15 K), 16.3 and 16.4.

In the case of `C=CCCCCC` [1-heptene] + CCCCCCCC[n+]1ccn(C)c1.F[P-](F)(F)(F)(F)F, the activity coefficient in data set [1] (313.15 K) is 8.2 ± 0.7; in data set [1] (323.15 K), 8.1 and 8.2; in data set [1] (333.15 K), 8 and 8.1.

Consider `C#CCCCCC` [1-heptyne] + CCCCCCCC[n+]1ccn(C)c1.F[P-](F)(F)(F)(F)F, for which the activity coefficient in data set [1] (313.15 K) was 2.81 and 2.93; in data set [1] (323.15 K), 2.98 and 2.87; in data set [1] (333.15 K) it was 2.93 and 3.04.

In the case of `C#CCCCC` [1-hexyne] + CCCCCCCC[n+]1ccn(C)c1.F[P-](F)(F)(F)(F)F, the activity coefficient in data set [1] (313.15 K) was 2.24 and 2.33; in data set [1] (323.15 K), 2.38 and 2.3; in data set [1] (333.15 K), 2.34 and 2.43.

In the case of `C=CCCCCCCC` [1-nonene] + CCCCCCCC[n+]1ccn(C)c1.F[P-](F)(F)(F)(F)F, the activity coefficient in data set [1] (313.15 K) was 14.2 and 13.5; in data set [1] (323.15 K), 13.3 and 13.9; in data set [1] (333.15 K), 13.5 and 13.3.

Turning to `CCCCCCCC[n+]1ccn(C)c1.F[P-](F)(F)(F)(F)F` [1-octyl-3-methylimidazolium hexafluorophosphate], the mass density (usually the mass of a sample divided by its volume) in data set [2] was 1238.51 ± 10 kg/m3.

Regarding `C#CCCCCCC` [1-octyne] + CCCCCCCC[n+]1ccn(C)c1.F[P-](F)(F)(F)(F)F, the activity coefficient was 3.77 and 3.9 in data set [1] (313.15 K); 3.94 and 3.87 in data set [1] (323.15 K); 3.94 and 4.03 in data set [1] (333.15 K).

Regarding `C#CCCC` [1-pentyne] + CCCCCCCC[n+]1ccn(C)c1.F[P-](F)(F)(F)(F)F, the activity coefficient is 1.7 and 1.72 in data set [1] (313.15 K); 1.79 and 1.75 in data set [1] (323.15 K); 1.78 and 1.84 in data set [1] (333.15 K).

As to `c1ccccc1` [benzene] + CCCCCCCC[n+]1ccn(C)c1.F[P-](F)(F)(F)(F)F, the activity coefficient in data set [1] (313.15 K) is 0.96 and 0.97; in data set [1] (323.15 K), 0.99 ± 0.08; in data set [1] (333.15 K), 1 and 1.03.

As for `C1CCCCCC1` [cycloheptane] + CCCCCCCC[n+]1ccn(C)c1.F[P-](F)(F)(F)(F)F, the activity coefficient in data set [1] (313.15 K) is 8.2 and 8; in data set [1] (323.15 K), 7.74 and 7.97; in data set [1] (333.15 K), 7.63 and 7.75.

`C1CCCCC1` [cyclohexane] + CCCCCCCC[n+]1ccn(C)c1.F[P-](F)(F)(F)(F)F: the activity coefficient in data set [1] (313.15 K) is 6.7 and 6.82; in data set [1] (323.15 K), 6.61 and 6.56; in data set [1] (333.15 K), 6.29 and 6.3.

For the molecule `C1CCCCCCC1` [cyclooctane] + CCCCCCCC[n+]1ccn(C)c1.F[P-](F)(F)(F)(F)F, the activity coefficient in data set [1] (313.15 K) is 10.2 and 9.9; in data set [1] (323.15 K), 9.5 and 9.9; in data set [1] (333.15 K) it was 9.4 ± 0.8.

`C1CCCC1` [cyclopentane] + CCCCCCCC[n+]1ccn(C)c1.F[P-](F)(F)(F)(F)F: the activity coefficient in data set [1] (313.15 K) is 5.02 and 5.06; in data set [1] (323.15 K), 4.95 and 4.92; in data set [1] (333.15 K), 4.77 and 4.79.

Consider `CCCCCCCCCC` [decane] + CCCCCCCC[n+]1ccn(C)c1.F[P-](F)(F)(F)(F)F, for which the activity coefficient in data set [1] (313.15 K) was 31.8 and 31.7; in data set [1] (323.15 K), 30.8 and 30.3; in data set [1] (333.15 K), 28.2 and 29.

In the case of `CCO` [ethanol] + CCCCCCCC[n+]1ccn(C)c1.F[P-](F)(F)(F)(F)F, the activity coefficient in data set [1] (313.15 K) is 2.22 and 2.32; in data set [1] (323.15 K) it was 2.05 and 2; in data set [1] (333.15 K), 1.79 and 1.82.

On to `CCc1ccccc1` [ethylbenzene] + CCCCCCCC[n+]1ccn(C)c1.F[P-](F)(F)(F)(F)F, for which the activity coefficient was 1.95 ± 0.17 in data set [1] (313.15 K); 1.98 ± 0.17 in data set [1] (323.15 K); 1.99 and 2.02 in data set [1] (333.15 K).

Regarding `CCCCCCC` [heptane] + CCCCCCCC[n+]1ccn(C)c1.F[P-](F)(F)(F)(F)F, the activity coefficient in data set [1] (313.15 K) was 14.1 and 14.3; in data set [1] (323.15 K) it was 13.6 and 13.8; in data set [1] (333.15 K) it was 13.2 ± 1.1.

Consider `C=CCCCC` [hex-1-ene] + CCCCCCCC[n+]1ccn(C)c1.F[P-](F)(F)(F)(F)F, for which the activity coefficient is 6.2 and 6.5 in data set [1] (313.15 K); 6.29 and 6.15 in data set [1] (323.15 K); 6.1 and 6.15 in data set [1] (333.15 K).

Regarding `CCCCCC` [hexane] + CCCCCCCC[n+]1ccn(C)c1.F[P-](F)(F)(F)(F)F, the activity coefficient in data set [1] (313.15 K) is 10.8 and 11; in data set [1] (323.15 K), 10.7 and 10.6; in data set [1] (333.15 K), 10.2 and 10.4.

As for `CO` [methanol] + CCCCCCCC[n+]1ccn(C)c1.F[P-](F)(F)(F)(F)F, the activity coefficient is 1.77 and 1.85 in data set [1] (313.15 K); 1.65 and 1.61 in data set [1] (323.15 K); 1.46 and 1.5 in data set [1] (333.15 K).

Regarding `C=CCCCCCC` [oct-1-ene] + CCCCCCCC[n+]1ccn(C)c1.F[P-](F)(F)(F)(F)F, the activity coefficient in data set [1] (313.15 K) is 10.8 and 10.3; in data set [1] (323.15 K), 10.2 and 10.7; in data set [1] (333.15 K), 10.4 and 10.3.

`CCCCCCCC` [octane] + CCCCCCCC[n+]1ccn(C)c1.F[P-](F)(F)(F)(F)F: the activity coefficient in data set [1] (313.15 K) was 18.3 and 17.6; in data set [1] (323.15 K), 17.1 and 17.9; in data set [1] (333.15 K), 17 and 16.9.

With `CCCCC` [pentane] + CCCCCCCC[n+]1ccn(C)c1.F[P-](F)(F)(F)(F)F, the activity coefficient in data set [1] (313.15 K) is 8.2 and 8.3; in data set [1] (323.15 K), 8.1 ± 0.7; in data set [1] (333.15 K), 7.8 and 8.

`Cc1ccccc1` [toluene] + CCCCCCCC[n+]1ccn(C)c1.F[P-](F)(F)(F)(F)F: the activity coefficient is 1.31 and 1.36 in data set [1] (313.15 K); 1.37 and 1.35 in data set [1] (323.15 K); 1.37 and 1.41 in data set [1] (333.15 K).

`CCCCCCCCCCC` [undecane] + CCCCCCCC[n+]1ccn(C)c1.F[P-](F)(F)(F)(F)F: the activity coefficient in data set [1] (313.15 K) was 42.1 and 41.3; in data set [1] (323.15 K), 40.1 and 39.6; in data set [1] (333.15 K) it was 36.5 and 37.
